One block for each compound: values may come before it.
Tests used:
Human 5-HT6 receptor = target: T1, Human 5-HT6 receptor (Homo sapiens, UniProt P50406); experiment: Binding assay for human 5-HT6 receptor ([3H]LSD radioligand); conditions: human recombinant receptor in HEK293 cells; for inhibition at 0.1 µM: 100 nM test compound, [3H]LSD 1.5 nM, read-out: % Inhibition of specific binding at 100 nM; for Ki: [3H]LSD
T1 construct: expressed in transfected cells; host or cells: HEK293 cells
Method: Compounds can be tested according to the following the procedures.
Receptor source: Human recombinant expressed in HEK293 cells
Radioligand: [^3H]LSD (60-80 Ci/mmol)
Final ligand concentration—[1.5 nM]
Non-specific determinant: Methiothepin mesylate—[0.1 μM]
Reference compound: Methiothepin mesylate
Positive control: Methiothepin mesylate
Reactions were carried out in […] TRIS-HCl (pH 7.4) containing 10 μM MgCl2, 0.5 mM EDTA for 60 minutes at 37° C. The reaction was terminated by rapid vacuum filtration onto glass fiber filters. Radioactivity trapped onto the filters was determined and compared to control values in order to ascertain any interactions of test compound(s) with the cloned serotonin 5-HT6 binding site.
Percent Inhibition of Specific Binding at 100 nM Concentrations
Literature Reference: Monsma F. J. Jr., et al., Molecular Cloning and Expression of Novel Serotonin Receptor with High Affinity for Tricyclic Psychotropic Drugs. Mol. Pharmacol. (43): 320-327 (1993).

[1] = Rodent brain penetration study (steady state); assay type: in vivo, Male Wister rats; conditions: Wistar, brain and plasma; Wister/Male rat, 10 mg/kg, Oral, vehicle water; read-out: Steady State Brain Penetration Cb/Cp
[2] = Rodent pharmacokinetic study; assay type: in vivo, Male wistar rats; conditions: plasma, Wistar/Male rat, 10 mg/kg; for AUC(0-t) / Cmax / Tmax / half-life: vehicle water; for bioavailability: Oral vs Intravenous
Method: Male wistar rats (230-280 grams) obtained from NIN (National Institute of Nutrition, Hyderabad, India) were used as an experimental animal.
Three to five animals were housed in each cage. Animals were kept fasted over night and maintained on a 12 hours light/dark cycle. Three rats were dosed NCE (10 mg/Kg) orally and intravenously on day 0 and day 2.
At each time point blood was collected by jugular vein. Plasma was stored frozen at −20° C. until analysis. The concentrations of the NCE compound in plasma were determined using LC-MS/MS method.
Schedule time points: Pre dose 0.25, 0.5, 1, 1.5, 2, 3, 4, 6, 8, 10, 12 and 24 hours after dosing (n=3). The NCE compounds were quantified in plasma by validated LC-MS/MS method using solid phase extraction technique. NCE compounds were quantified in the calibration range of 2-2000 ng/ml in plasma. Study samples were analyzed using calibration samples in the batch and quality control samples spread across the batch.
Pharmacokinetic parameters Cmax, Tmax, AUCt, AUCinf, half life, volume of distribution, clearance, mean residence time and thereby oral bioavailability were calculated by non-compartmental model using software WinNonlin version 5.1.

Male Wister rats = experiment: Object recognition task model (NORT); assay type: in vivo; conditions: p.o.; for NORT Discriminative Index (DI), treatment: vehicle value in brackets in the cell; for NORT Inference: 10 and 30 mg/kg
Method: The cognition-enhancing properties of compounds of this invention were estimated using a model of animal cognition: the object recognition task model. Male Wister rats (230-280 grams) obtained from N.I.N. (National Institute of Nutrition, Hyderabad, India) were used as experimental animals. Four animals were housed in each cage. Animals were kept on 20% food deprivation before one day and given water ad libitum throughout the experiment and maintained on a 12 hours light/dark cycle. Also the rats were habituated to individual arenas for 1 hour in the absence of any objects.
One group of 12 rats received vehicle (1 mL/Kg) orally and another set of animals received compound of the formula (I) either orally or i.p., before one hour of the familiar (T1) and choice trial (T2).
The experiment was carried out in a 50×50×50 cm open field made up of acrylic. In the familiarization phase, (T1), the rats were placed individually in the open field for 3 minutes, in which two identical objects (plastic bottles, 12.5 cm height×5.5 cm diameter) covered in yellow masking tape alone (a1 and a2) were positioned in two adjacent corners, 10 cm. from the walls. After 24 hours of the (T1) trial for long-term memory test, the same rats were placed in the same arena as they were placed in T1 trial. Choice phase (T2) rats were allowed to explore the open field for 3 minutes in presence of one familiar object (a3) and one novel object (b) (Amber color glass bottle, 12 cm high and 5 cm in diameter). Familiar objects presented similar textures, colors and sizes. During the T1 and T2 trial, explorations of each object (defined as sniffing, licking, chewing or having moving vibrissae whilst directing the nose towards the object at a distance of less than 1 cm) were recorded separately by stopwatch. Sitting on an object was not regarded as exploratory activity, however, it was rarely observed. T1 is the total time spent exploring the familiar objects (a1+a2). T2 is the total time spent exploring the familiar object and novel object (a3+b).
The object recognition test was performed as described by Ennaceur, A., Delacour, J., 1988, A new one-trial test for neurobiological studies of memory in rats-Behavioral data, Behav. Brain Res., 31, 47-59.

rats = experiment: Water maze, scopolamine induced reversal; assay type: in vivo; conditions: p.o.
Method: The water maze apparatus consisted of a circular pool (1.8 m diameter, 0.6 m high) constructed in black Perspex (TSE systems, Germany) filled with water (24±2° C.) and positioned underneath a wide-angled video camera to track animal. The 10 cm^2 perspex platform, lying 1 cm below the water surface, was placed in the centre of one of the four imaginary quadrants, which remained constant for all rats. The black Perspex used in the construction of the maze and platform offered no intramaze cues to guide escape behavior. By contrast, the training room offered several strong extramaze visual cues to aid the formation of the spatial map necessary for escape learning. An automated tracking system, [Videomot 2 (5.51), TSE systems, Germany] was employed. This program analyzes video images acquired via a digital camera and an image acquisition board that determined path length, swim speed and the number of entries and duration of swim time spent in each quadrant of the water maze.

[3] = system: animal models for schizophrenia; conditions: Pouzet et al. 2002; cited from earlier work
5-HT6 receptor = conditions: literature; cited from earlier work

T1 sequence (P50406 whole entry): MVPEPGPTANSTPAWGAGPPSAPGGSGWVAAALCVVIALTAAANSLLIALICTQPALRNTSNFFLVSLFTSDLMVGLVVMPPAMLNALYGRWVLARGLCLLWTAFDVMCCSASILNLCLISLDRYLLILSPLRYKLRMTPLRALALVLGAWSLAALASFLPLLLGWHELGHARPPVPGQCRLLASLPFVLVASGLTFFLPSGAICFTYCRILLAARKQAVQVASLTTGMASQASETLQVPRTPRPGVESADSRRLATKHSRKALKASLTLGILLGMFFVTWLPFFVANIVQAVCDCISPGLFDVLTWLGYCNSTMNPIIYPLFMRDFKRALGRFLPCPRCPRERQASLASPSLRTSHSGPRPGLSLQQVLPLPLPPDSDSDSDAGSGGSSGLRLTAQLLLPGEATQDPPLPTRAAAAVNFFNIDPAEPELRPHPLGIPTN

SMILES: COc1ccc2c(c1)c(C)cn2S(=O)(=O)c1ccc(OC)c(NCCN(C)C)c1 [Example 1, N′-[2-Methoxy-5-(5-methoxy-3-methylindole-1-sulfonyl)phenyl]-N,N-dimethyl ethane-1,2-diamine]
inhibition at 0.1 µM (Human 5-HT6 receptor): 82.9%

SMILES: COc1ccc2c(c1)c(Cl)cn2S(=O)(=O)c1ccc(OC)c(NCCN(C)C)c1 [Example 2, N′-[5-(3-Chloro-5-methoxyindole-1-sulfonyl)-2-methoxyphenyl]-N,N-dimethyl ethane-1,2-diamine]
inhibition at 0.1 µM (Human 5-HT6 receptor): 84.9%

SMILES: COc1ccc(S(=O)(=O)n2cc(Cl)c3ccccc32)cc1NCCN(C)C [Example 3, N′-[5-(3-Chloroindole-1-sulfonyl)-2-methoxyphenyl]-N,N-dimethyl ethane-1,2-diamine]
inhibition at 0.1 µM (Human 5-HT6 receptor): 95.6%
Ki (Human 5-HT6 receptor): 3.02 nM

SMILES: COc1ccc(S(=O)(=O)n2ccc3ccccc32)cc1NCCN(C)C [Example 4, N′-[5-(Indole-1-sulfonyl)-2-methoxyphenyl]-N,N-dimethyl ethane-1,2-diamine]
Kp [1]: 20.2 ± 1.84
AUC(0-t) ([2]; Intravenous): 1870 ± 338 ng·h/mL
Cmax ([2]; Intravenous): 1590 ± 538 ng/mL
Tmax ([2]; Intravenous): 0.08 h
half-life ([2]; Intravenous): 2.93 ± 1.29 h
bioavailability [2]: 5 ± 2%
AUC(0-t) ([2]; Oral): 88 ± 48 ng·h/mL
Cmax ([2]; Oral): 41 ± 19 ng/mL
Tmax ([2]; Oral): 0.58 ± 0.38 h
half-life ([2]; Oral): 1.95 ± 0.73 h
inhibition at 0.1 µM (Human 5-HT6 receptor): 90.5%
Ki (Human 5-HT6 receptor): 1.22 nM

SMILES: COc1ccc(S(=O)(=O)n2cc(C)c3ccccc32)cc1NCCN(C)C [Example 5, N′-[2-Methoxy-5-(3-methylindole-1-sulfonyl)phenyl]-N,N-dimethyl ethane-1,2-diamine]
NORT Discriminative Index (DI), treatment (Male Wister rats; 10 mg/kg): 0.46 (0.52)
NORT Discriminative Index (DI), treatment (Male Wister rats; 30 mg/kg): 0.58 (0.56)
NORT Inference (Male Wister rats): Active
Kp [1]: 13.5 ± 4.28
AUC(0-t) ([2]; Intravenous): 2860 ± 442 ng·h/mL
Cmax ([2]; Intravenous): 1960 ± 458 ng/mL
Tmax ([2]; Intravenous): 0.08 h
half-life ([2]; Intravenous): 3.37 ± 0.29 h
bioavailability [2]: 6 ± 1%
AUC(0-t) ([2]; Oral): 158 ± 20 ng·h/mL
Cmax ([2]; Oral): 36 ± 8 ng/mL
Tmax ([2]; Oral): 1.33 ± 0.58 h
half-life ([2]; Oral): 2.27 ± 0.2 h
Scopolamine Induced Reversal (active dose) (rats): ≧3 mg/kg, p.o.
inhibition at 0.1 µM (Human 5-HT6 receptor): 93%
Ki (Human 5-HT6 receptor): 1.52 nM

SMILES: COc1ccc2c(c1)c(C)cn2S(=O)(=O)c1ccc(C)c(NCCN(C)C)c1 [Example 8, N′-[5-(5-Methoxy-3-methylindole-1-sulfonyl)-2-methylphenyl]-N,N-dimethyl ethane-1,2-diamine]
Ki (Human 5-HT6 receptor): 17.3 nM

SMILES: COc1ccc2c(ccn2S(=O)(=O)c2ccc(C)c(NCCCN(C)C)c2)c1 [Example 9, N′-[5-(5-Methoxyindole-1-sulfonyl)-2-methylphenyl]-N,N-dimethyl propane-1,3-diamine]
Ki (Human 5-HT6 receptor): 41 nM

SMILES: COc1ccc(NS(=O)(=O)c2sc3ccc(Cl)cc3c2C)cc1N1CCNCC1 [SB-271046, 5-Chloro-N-(4-methoxy-3-piperazin-1-ylphenyl)-3-methyl-2-benzothiophenesulfonamide]
Activity in animal tests related to positive or negative symptoms of schizophrenia [3]: inactive

SMILES: CN(C)CCC=C1c2ccccc2CCc2ccccc21 [amitriptyline]
Affinity for the 5-HT6 receptor (5-HT6 receptor): high affinity

SMILES: CN1CCN2c3ccccc3Cc3ccccc3C2C1 (centres unmarked) [mianserin]
Affinity for the 5-HT6 receptor (5-HT6 receptor): high affinity

Further lines, with some results ahead:

inhibition at 0.1 µM (Human 5-HT6 receptor): 70.7%
SMILES: CCc1ccc(S(=O)(=O)n2ccc3cc(F)ccc32)cc1NCCN(C)C [Example 13, N′-[2-Ethyl-5-(5-fluoroindole-1-sulfonyl)phenyl]-N,N-dimethyl ethane-1,2-diamine]

inhibition at 0.1 µM (Human 5-HT6 receptor): 56.4%
SMILES: CCc1ccc(S(=O)(=O)n2cc(C)c3cc(OC)ccc32)cc1NCCN(C)C [Example 15, N′-[2-Ethyl-5-(5-methoxy-3-methylindole-1-sulfonyl)phenyl]-N,N-dimethyl ethane-1,2-diamine]

inhibition at 0.1 µM (Human 5-HT6 receptor): 100%
SMILES: Cc1ccc(S(=O)(=O)n2ccc3ccc(Cl)cc32)cc1NCCN(C)C [Example 20, N′-[5-(6-Chloroindole-1-sulfonyl)-2-methylphenyl]-N,N-dimethyl ethane-1,2-diamine]

inhibition at 0.1 µM (Human 5-HT6 receptor): 96%
SMILES: CN(C)CCNc1cccc(S(=O)(=O)n2ccc3ccc(Cl)cc32)c1 [Example 23, N′-[3-(6-Chloroindole-1-sulfonyl)phenyl]-N,N-dimethyl ethane-1,2-diamine]

inhibition at 0.1 µM (Human 5-HT6 receptor): 76%
SMILES: CCc1ccc(S(=O)(=O)n2ccc3cc(OC)ccc32)cc1NCCN(C)C [Example 26, N′-[2-Ethyl-5-(5-methoxyindole-1-sulfonyl)phenyl]-N,N-dimethyl ethane-1,2-diamine]

Kp [1]: 3.48 ± 0.27
AUC(0-t) ([2]; Intravenous): 3480 ± 650 ng·h/mL
Cmax ([2]; Intravenous): 1730 ± 682 ng/mL
Tmax ([2]; Intravenous): 0.08 h
half-life ([2]; Intravenous): 2.72 ± 0.4 h
bioavailability [2]: 19 ± 7%
AUC(0-t) ([2]; Oral): 674 ± 320 ng·h/mL
Cmax ([2]; Oral): 140 ± 76.8 ng/mL
Tmax ([2]; Oral): 2.33 ± 1.53 h
half-life ([2]; Oral): 5.06 ± 3.28 h
Ki (Human 5-HT6 receptor): 2.92 nM
SMILES: COc1ccc(S(=O)(=O)n2cc(C)c3ccccc32)cc1NCCCN(C)C [Example 31, N′-[2-Methoxy-5-(3-methylindole-1-sulfonyl)phenyl]-N,N-dimethyl propane-1,3-diamine]
NORT Discriminative Index (DI), treatment (Male Wister rats; 10 mg/kg): 0.54 (0.48)
NORT Discriminative Index (DI), treatment (Male Wister rats; 30 mg/kg): 0.52 (0.52)
NORT Inference (Male Wister rats): Active
Scopolamine Induced Reversal (active dose) (rats): ≧30 mg/kg, p.o.

Ki (Human 5-HT6 receptor): 7.34 nM
SMILES: COc1ccc(S(=O)(=O)n2cc(C)c3cc(F)ccc32)cc1NCCCN(C)C [Example 33, N′-[2-Methoxy-5-(5-fluoro-3-methylindole-1-sulfonyl)phenyl]-N,N-dimethyl propane-1,3-diamine]

Ki (Human 5-HT6 receptor): 18.9 nM
SMILES: COc1ccc2c(c1)c(C)cn2S(=O)(=O)c1ccc(OC)c(NCCCN(C)C)c1 [Example 35, N′-[2-Methoxy-5-(5-methoxy-3-methylindole-1-sulfonyl)phenyl]-N,N-dimethyl propane-1,3-diamine]

— patent US7964627B2, “Amino arylsulfonamide compounds and their use as 5-HT6 ligands” (Suven Life Sciences Limited, priority 2007, dated 2011)
